Assay results: EPA's ToxValDB 9.5
Where “and” joins values, the source holds several entries; their conditions need not be identical. Identical values can stand only once.

Columns and labels:
Rattus norvegicus = conditions: oral
Mus musculus = conditions: oral
[1] = short-term, duration: 28 days, M, CD, Body Weight: 10% decrease in final body weight
[2] = short-term, duration: 28 days, M, CD, Hepatic: 34% decrease in serum triglyceride levels, minimal hepatocellular hypertrophy at ?[…] / minimal focal necrosis at 29 mg/kg/day
[3] = subchronic, duration: 90 days, M, CD, Body Weight: 33% reduction in final mean body weight
[4] = developmental, duration: 17 days, F, CD1, Developmental: 323% increased prenatal loss, 16.7% decreased live fetuses, 24.3% decreased neonatal survival
[5] = developmental, duration: 17 days, F, Developmental: Significantly reduced pup survival (46%) from birth to weaning
[6] = reproduction developmental, duration: 17 days, M, CD1, Body Weight: 32% reduced weight gain during pregnancy
[7] = short-term, duration: 14 days, M, CD1, 6-12% decreased in body weight gain
[8] = short-term, duration: 15 days, F, Body Weight: Weight loss (~5%)
[9] = short-term, duration: 15 days, F, Immunotoxicological: Reduced sRBC-specific response to IgM antibody titers
[10] = short-term, duration: 21 days, M, ICR, Body Weight: 17% decrease in weight gain
[11] = short-term, duration: 21 days, M, ICR, Hepatic: 27% increase in relative liver weight at ?0.5 mg/kg/day / increases in ALT at ?[…] / hepatocytomegaly at 18 mg/kg/day / necrosis…
[12] = short-term, duration: 28 days, M, CD1, Hepatic: Mild hepatocellular hypertrophy at ?0.29, moderate to severe hypertrophy and single cell necrosis at ?0.96 mg/kg/day / decreased …

Q: With O=C([O-])C(F)(F)C(F)(F)C(F)(F)C(F)(F)C(F)(F)C(F)(F)C(F)(F)F.[NH4+] [Ammonium perfluorooctanoate] as the compound, how does the NOAEL (Rattus norvegicus; short-term, duration: 28 days, M, CD, Body Weight: 30 mg/kg/day: 11% reduction in final body weight / 100 mg/kg/day: 33% reduction in final body weight) read?
A: 10 mg/kg-day

Q: What about the LOAEL (Rattus norvegicus; [1]) of the same compound?
A: 9.6 mg/kg-day

Q: What about the NOAEL (Rattus norvegicus; [1]) of the same compound?
A: 0.96 mg/kg-day

Q: What about the LOAEL (Rattus norvegicus; [2]) of the same compound?
A: 29 mg/kg-day

Q: What about the NOAEL (Rattus norvegicus; [2]) of the same compound?
A: 0.29 mg/kg-day

Q: What about the NOAEL (Rattus norvegicus; short-term, duration: 28 days, M, CD, Hepatic: Hepatocyte hypertrophy) of the same compound?
A: 3 mg/kg-day

Q: And the LOAEL (Rattus norvegicus; short-term, duration: 28 days, M, Sprague-Dawley, Hepatic: Increased liver weight (43% on day 29), decreased serum cholesterol (39% on day 29) and triglyceride (73% on day 29), …)?
A: 18 mg/kg-day

Q: What about the LOAEL (Rattus norvegicus; short-term, duration: 28 days, M, albino, Death: 5/5 males and 5/5 females died) of the same compound?
A: 1000 mg/kg-day

Q: What about the NOAEL (Rattus norvegicus; subchronic, duration: 13 weeks, M, CD, Hepatic: Minimal to moderate hepatocellular hypertrophy at ?0.64 mg/kg/day + Neurological: No histological alterations + Reproductive: No …) of the same compound?
A: 6.5 mg/kg-day

Q: What about the NOAEL (Rattus norvegicus; subchronic, duration: 90 days, F, CD) of the same compound?
A: 100 mg/kg-day

Q: What about the NOAEL (Rattus norvegicus; subchronic, duration: 90 days, F, CD, Neurological: No histological alterations) of the same compound?
A: 110 mg/kg-day

Q: And the LOAEL (Rattus norvegicus; [3])?
A: 100 mg/kg-day

Q: And the NOAEL (Rattus norvegicus; [3])?
A: 30 mg/kg-day

Q: What about the NOAEL (Rattus norvegicus; subchronic, duration: 90 days, M, CD, Hepatic: Hepatocyte hypertrophy / 50% increase in absolute liver weight + Reproductive: No histological alterations) of the same compound?
A: 100 mg/kg-day

Q: What about the LOAEL (Mus musculus; developmental, duration: 1 days, M, CD1, Developmental: Decreased spontaneous activity and altered response to cholinergic stimulant) of the same compound?
A: 0.58 mg/kg-day

Q: What about the LOAEL (Mus musculus; developmental, duration: 10 days, F, CD1, Developmental: Altered mammary gland development in female pups / reduced pup weight on PND 20) of the same compound?
A: 5 mg/kg-day

Q: And the LOAEL (Mus musculus; developmental, duration: 10 days, F, CD1, Developmental: Delayed mammary gland development (30-60%) in female pups on PNDs 1-10 + Reproductive: Immature mammary gland morphology in …)?
A: 5 mg/kg-day

Q: And the NOAEL (Mus musculus; developmental, duration: 10 days, F, CD1, Hepatic: 40-120% increased relative liver weight in lactating dams on PNDs 1-10)?
A: 5 mg/kg-day

Q: And the LOAEL (Mus musculus; developmental, duration: 11 days, F, CD1, Developmental: Delayed mammary gland development (31-47%) in female pups on PNDs 22-32 and at 18 months)?
A: 5 mg/kg-day

Q: And the LOAEL (Mus musculus; developmental, duration: 11 days, F, CD1, Developmental: Reduced pup body weight at weaning, 43% in males and 35% in females)?
A: 5 mg/kg-day

Q: What about the NOAEL (Mus musculus; developmental, duration: 12 days, F) of the same compound?
A: 1 mg/kg-day

Q: And the LOAEL (Mus musculus; developmental, duration: 12 days, F, Developmental: 7-10% decrease in litter weight on PND 2)?
A: 0.5 mg/kg-day

Q: What about the NOAEL (Mus musculus; developmental, duration: 17 days, F) of the same compound?
A: 10 mg/kg-day

Q: What about the LOAEL (Mus musculus; developmental, duration: 17 days, F, CD1, Developmental: 3 mg/kg/day: reduced weight gain through lactation (14.8% in males and 20.6% in females) / delayed eye opening and hair …) of the same compound?
A: 3 mg/kg-day and 5 mg/kg-day

Q: What about the LOAEL (Mus musculus; [4]) of the same compound?
A: 5 mg/kg-day

Q: And the NOAEL (Mus musculus; [4])?
A: 1 mg/kg-day

Q: And the LOAEL (Mus musculus; developmental, duration: 17 days, F, CD1, Developmental: Decreased birth weight (approximately 8%) and body weight at weaning (24%))?
A: 5 mg/kg-day

Q: What about the LOAEL (Mus musculus; developmental, duration: 17 days, F, CD1, Developmental: Delayed mammary gland development in female pups on PNDs 22-63 + Reproductive: Delayed mammary gland lactational …) of the same compound?
A: 0.0024 mg/kg-day

Q: And the LOAEL (Mus musculus; developmental, duration: 17 days, F, CD1, Developmental: Delayed mammary gland development in female pups on PNDs 22-63 and at 18 months)?
A: 3 mg/kg-day

Q: What about the LOAEL (Mus musculus; developmental, duration: 17 days, F, CD1, Developmental: Increased prenatal loss / 40% reduced neonatal body weight on PNDs 5 and 10) of the same compound?
A: 5 mg/kg-day

Q: What about the LOAEL (Mus musculus; developmental, duration: 17 days, F, CD1, Reproductive: Delayed mammary gland differentiation) of the same compound?
A: 5 mg/kg-day

Q: What about the LOAEL (Mus musculus; [5]) of the same compound?
A: 0.6 mg/kg-day

Q: What about the NOAEL (Mus musculus; [5]) of the same compound?
A: 0.3 mg/kg-day

Q: What about the NOAEL (Mus musculus; reproduction developmental, duration: 11 days, F, CD1, Body Weight: No alterations in dams dosed on GDs 15-17 + Hepatic: Increase in relative liver weight in dams dosed on GDs 13-17, 10-17, or 7-…) of the same compound?
A: 20 mg/kg-day

Q: And the NOAEL (Mus musculus; reproduction developmental, duration: 17 days, F, CD1, Hepatic: Significant increase in relative and absolute maternal liver weight on PND 22 at ?3 mg/kg/day)?
A: 5 mg/kg-day

Q: What about the LOAEL (Mus musculus; reproduction developmental, duration: 17 days, F, CD1, Reproductive: Delayed mammary gland lactational differentiation in dams on PND 22) of the same compound?
A: 1 mg/kg-day

Q: What about the NOAEL (Mus musculus; reproduction developmental, duration: 17 days, F, Hepatic: Increased absolute and relative liver weight of dams on PND 22 at ?1 mg/kg/day) of the same compound?
A: 20 mg/kg-day

Q: What about the NOAEL (Mus musculus; reproduction developmental, duration: 17 days, M, CD1, 38% increase in absolute liver weight at ?1 mg/kg/day) of the same compound?
A: 1 mg/kg-day

Q: What about the LOAEL (Mus musculus; [6]) of the same compound?
A: 10 mg/kg-day

Q: What about the NOAEL (Mus musculus; [6]) of the same compound?
A: 5 mg/kg-day

Q: What about the NOAEL (Mus musculus; short-term, duration: 14 days, M/F, CD1, Hepatic: 123-155% increase in absolute liver weight in 14 days at ?5.3 mg/kg/day) of the same compound?
A: 537 mg/kg-day

Q: And the LOAEL (Mus musculus; [7])?
A: 10 mg/kg-day

Q: And the NOAEL (Mus musculus; [7])?
A: 3 mg/kg-day

Q: What about the NOAEL (Mus musculus; short-term, duration: 14 days, M, CD1, Hepatic: Decreased serum cholesterol levels at ?0.3 mg/kg/day) of the same compound?
A: 30 mg/kg-day

Q: What about the LOAEL (Mus musculus; [8]) of the same compound?
A: 15 mg/kg-day

Q: What about the NOAEL (Mus musculus; [8]) of the same compound?
A: 7.5 mg/kg-day

Q: And the LOAEL (Mus musculus; [9])?
A: 3.75 mg/kg-day

Q: And the NOAEL (Mus musculus; [9])?
A: 1.88 mg/kg-day

Q: And the NOAEL (Mus musculus; short-term, duration: 21 days, M/F, CD1, Hepatic: 39-41% increase in absolute liver weight at ?5.4 mg/kg/day)?
A: 5.4 mg/kg-day

Q: What about the NOAEL (Mus musculus; short-term, duration: 21 days, M, ICR) of the same compound?
A: 47 mg/kg-day

Q: And the LOAEL (Mus musculus; [10])?
A: 18 mg/kg-day

Q: And the NOAEL (Mus musculus; [10])?
A: 2.6 mg/kg-day

Q: What about the LOAEL (Mus musculus; [11]) of the same compound?
A: 47 mg/kg-day

Q: And the NOAEL (Mus musculus; [11])?
A: 18 mg/kg-day

Q: What about the LOAEL (Mus musculus; short-term, duration: 28 days, F, CD1, 5/5 died before 4th week of study) of the same compound?
A: 58 mg/kg-day

Q: And the LOAEL (Mus musculus; short-term, duration: 28 days, F, CD1, Body Weight: Males: final body weight 20% lower than controls / females: final body weight 25% lower than controls)?
A: 5.8 mg/kg-day

Q: What about the NOAEL (Mus musculus; short-term, duration: 28 days, M/F, CD1, Hepatic: 3-fold or greater increased absolute and relative liver weight and hepatocellular hypertrophy at ?5.4 mg/kg/day) of the same compound?
A: 18 mg/kg-day

Q: And the LOAEL (Mus musculus; short-term, duration: 28 days, M, CD1, Body Weight: Males: final body weight 20% lower than controls / females: final body weight 25% lower than controls)?
A: 5.4 mg/kg-day

Q: What about the LOAEL (Mus musculus; short-term, duration: 28 days, M, CD1, Body Weight: Weight loss (86% of controls)) of the same compound?
A: 9.6 mg/kg-day

Q: And the NOAEL (Mus musculus; short-term, duration: 28 days, M, CD1, Body Weight: Weight loss (86% of controls) + Immunotoxicological: Decreased response to sRBC, decreased number of splenic and thymic …)?
A: 0.96 mg/kg-day

Q: What about the LOAEL (Mus musculus; short-term, duration: 28 days, M, CD1, Death: 4/5 died before end of 4th week) of the same compound?
A: 54 mg/kg-day

Q: What about the LOAEL (Mus musculus; short-term, duration: 28 days, M, CD1, Death: 5/5 died before 2nd week of study) of the same compound?
A: 180 mg/kg-day

Q: And the LOAEL (Mus musculus; [12])?
A: 0.96 mg/kg-day

Q: And the NOAEL (Mus musculus; [12])?
A: 0.29 mg/kg-day

Q: And the LOAEL (Mus musculus; short-term, duration: 28 days, M, CD1, Immunotoxicological: Decreased response to sRBC, decreased number of splenic and thymic lymphocytes)?
A: 9.6 mg/kg-day
